Reference: US9144594B2, “Cathepsin L mediated diseases and associated methods and products” (University of Miami, priority 2005, dated 2015)
“Also recorded” adds a separate entry of the source.

Tests used:
cathepsin L = molecular target: T1, cathepsin L (Homo sapiens, UniProt P07711); assay: Processing of recombinant dynamin by purified CatL in vitro; type: biochemical
T1 construct: purchased Sigma, Saint Louis, Mo
Description: Reinheckel and colleges have developed the bioinformatics tool ‘PEPS’ (Prediction of Endopeptidase Substrates) to predict endopeptidase cleavage sites. By using PEPS, three putative cathepsin L sites within dynamin were identified (FIG. 4A). To assess whether cathepsin L could cleave dynamin at neutral pH 7.0, recombinant dynamin 1 was incubated with purified cathepsin L (Stressgene) and respective proteolytic fragments were determined using anti-dynamin antibodies that recognize N-terminal GTPase domain (Stressgene). […] The most prominent proteolytic fragment traveled with molecular weight of approximately 40 kD. […] Thus, self-assembly of dynamin:GTPγS protected from cathepsin L cleavage. The middle domain and the […] mediate dynamin self-assembly into higher order structures. Based on the 3D-structure of self-assembled dynamin determined by cry-EM, the middle and the GAP domains are localized within self-assembled dynamin and thus amino acid sequences situated within either of these domains are predicted to be inaccessible for cathepsin L. Since activity of cathepsin L at pH 7.0 was marginal if GTP was not added in the assay, in order to examine whether GTPγS and thus self-assembly can protect from cathepsin L cleavage in general, assays were performed at lower pHs. As expected, at pH 5.0 and 6.0 cathepsin L potently proteolyzed recombinant dynamin (FIG. 4E). […] Thus, generation of 40 kD fragment upon addition of GTP in the assay and protection of the cleavage by GTPγS are consistent with primary cleavage site for cathepsin L to be present within the middle domain.
GTP in vitro and in vivo. To further examine if proteolysis of dynamin by cytoplasmic CatL occurs during proteinuric kidney disease, it was examined whether purified dynamin is cleaved by CatL in vitro at neutral pH. The PEPS algorithm identified three putative CatL recognition motifs within dynamin (FIG. 19A): amino acids 55-59 (LPRGS; SEQ ID NO.28) within the GTPase domain, 354-359 (ELSGGA; SEQ ID NO.29) within the middle domain, and 614-618 (FLRAG; SEQ ID NO.30) within the pleckstrin-homology (PH) domain. […] The cleavage pattern obtained in vitro is almost identical to that observed in podocytes after addition of LPS (FIG. 18A, compare lanes 3 and 5). p40 is the predicted size of the N-terminal fragment after cleavage at the ELSGGA sequence (FIG. 19A; SEQ ID NO.29). Another fragment, p55, is observed in the absence of added protease (FIG. 19C, lane 1), likely during protein preparation. Thus, p55 is not a precursor of p40. Furthermore, incubation of dynamin with CatB generated p55 in a nucleotide-independent manner (FIG. 19F, lanes 2-4), whereas furin, another protease also found in podocytes in vivo, was unable to cleave dynamin (FIG. 19F, lanes 6-8). Thus, while p55 is produced by a number of proteases and thus represents a “hot spot” for proteolysis, p40 is generated by CatL only when dynamin is in the GTP-bound conformation.
At pH 5.0 and 6.0, CatL was highly reactive towards recombinant dynamin, even in the absence of GTP (FIG. 19D, lanes 2 and 4).
Recombinant dynamin was purified as described (Damke et al., 2001). 1 μg of dynamin (10 pmol) was diluted in buffer containing 200 mM NaCl, 10 mM HEPES pH 7.0, 2 mM EGTA, 1 mM MgCl2 and 1 mM DTT. When indicated 200 μM of GTP or 1 mM of GTPγS was added, and dynamin was allowed to bind nucleotides for 10 min on ice. Reaction was initiated by addition of 0.5 μl of purified CatL (S.A. 4.13 units/mg of protein from Sigma, Saint Louis, Mo.), and samples were placed at 37° C. in the water bath for 10 min. Total assay volume was 20 μl. Reaction was terminated with addition of E-64d inhibitor (Sigma, Saint Louis, Mo.), and sample buffer. For Western blot analysis 5 μl of the samples was run on 10% SDS-PAGE. When CatB (S.A. 3 units/mg of protein from Sigma, Saint Louis, Mo.) or recombinant human furin (from R&D Systems, Minneapolis, Minn.) were used, 2 μl of the enzymes were added in the assay.

podocytes = assay: Scrape wound (wound healing) assay of podocytes; type: cell-based, mouse; details: pretreatment 24 h; untreated cells 31%
Description: Functionally, lipid raft-associated uPAR has been implicated in cell migration (21). The motility of cultured podocytes was analyzed to explore the consequences of increased uPAR expression in lipid rafts. First, podocyte cell lines were established with stable knock down of uPAR expression using siRNA. The efficiency of uPAR-siRNA was confirmed by both semi-quantitative RT-PCR (>90% inhibition) and Western blotting (>70%) (FIG. 12A). A modified multi-well Boyden chamber assay was used to assess the random migration of differentiated podocytes. […] To test whether this effect was mediated by uPAR, uPAR knock-down studies were performed by stably transfecting uPAR-siRNA into podocytes. […] The distance from the wound margin migrated by cells was related to the total distance of the scar and expressed as percentage closure 12 h after post-wound incubation. […]
To study the directional movement of podocytes, wound healing assay was performed. […] The cell migratory distance was calculated by averaging the distance from the wound edge to the DAPI-labeled nucleus of the maximally migrated cell in five distinct border zones. The percentage of closure was calculated as migratory distance from both sides versus initial wound track width.

lysosomes = assay: Lysosomal leakage assay using Lucifer Yellow in podocytes; type: cell-based, mouse
Source text: Next the reason for the relocalization of CatL in LPS treated podocytes was examined. To examine the possibility of lysosomal leakage, the localization of Lucifer Yellow, a cellular dye that is readily taken up into lysosomes was examined.

dynamin = assay: Dynamin self-assembly, apparent affinity measured in vitro; type: biochemical
Source text: The fact that this significant decrease in the fluorescence lifetime of ECFP is statistically insignificant is due to high fluctuations of the lifetimes between different cells (high error bar in Table 3). This is most likely due to ability of dynK694A to overcome its assembly defect under certain circumstances as shown in vitro. The fact that ECFP-dynK694A has a faster lifetime than ECFP-dynI690K is in agreement with its less severe assembly defect measured in vitro (apparent affinity of dynK694A is ˜7-fold lower then dynWT, whereas it is unmeasurable for dynI690K).

[1] = tested on: dynamin-dynamin interactions; assay: FLIM analysis of dynamin-dynamin interactions (self-assembly) in podocytes; type: cell-based, mouse; details: Table 4; donor GTPase-a488, acceptor Hudy1-a568; in ps
Description: In one embodiment the cell-based assay to monitor dynamin-dynamin interactions is performed on a cultured mouse podocyte cell line and the readout of dynamin self-assembly using fluorescence lifetime imaging microscopy (FLIM). FLIM is based on the fluorescence resonance energy transfer (FRET) between the donor and acceptor that shortens the lifetime of the donor if the acceptor distance is within ≈100 Å (10 nm). […] The assay is based on overexpressing dynamin in podocytes, and subsequently staining fixed cells with monoclonal anti-dynamin antibodies that have been conjugated with donor or acceptor florophores. In one embodiment of the invention, Alexa-488 is used as the donor florophore and Alexa-568 is used as the acceptor florophore. In yet another embodiment the donor florophore is dynamin conjugated enhanced-cyan fluorescence protein (ECFP) and the acceptor is dynamin conjugated enhanced yellow-fluorescence protein (EYFP). It will be appreciated by the person of ordinary skill in the art that numerous combinations of FRET donor and acceptors can be used, which are readily available and known. In one embodiment, the FLIM assay is carried out in COS cells and the donor can be selected from the list consisting of: ECFP-WT, ECFP-1690K, ECFP-K44A, ECFP-K694A, and the -acceptor can be selected from the list consisting of: EYFP, EYFP-WT, EYFP-K44A, EYFP-1690K, EYFP-K694A. In yet another embodiment the FLIM assay is performed in podocytes and the donor is GTPase-Alexa488 and the acceptor is selected from the list consisting of: DAM-Alexa568, GTPase-Alexa568, and Hudyl-Alexa568. Cells are stained by mixing both donor and acceptor florophores in equal amounts, and examining the spatially-restricted lifetime shortening in cells detects the localization of dynamin-dynamin interactions in cells. Since dynamin-dynamin interactions are vital for the function of the podocyte, it will be appreciated by the person of ordinary skill in the art that this assay can now be used to screen peptides, small molecules or drugs which can affect these molecular interactions. For example such molecules are cytocholasin D, jasplakinolide, colchisine, dynK44A, dynK694A, dynWT, dynI690K, dynR725A (SEQ ID NO.4), dynL356Q, G358V, (SEQ ID NO.3) any combination thereof, etc.
In order to test the hypothesis that self-assembly of dynamin was protecting its cathepsin L processing in cultured podocytes, dynamin self-assembly in live cells was examined using fluorescence lifetime imaging microscopy (FLIM). FLIM is based on the fluorescence resonance energy transfer (FRET) between the donor and the acceptor that shortens the lifetime of the donor if the acceptor distance is within ≈100 Å (10 nm). […] A FLIM-assay was developed that specifically detects dynamin self-assembly into the higher order structures in podocytes. The assay is based on overexpressing dynamin in podocytes, and subsequently staining fixed cells with monoclonal anti-dynamin antibodies that have been conjugated with either Alexa-488 (donor florophore) or Alexa-568 (acceptor florophore). Cells are stained by mixing both florophores in equal amounts, and examining lifetime of Alexa-488. […] Importantly, FRET only occurred in the vicinity of the membrane. […] Thus, both dominant activating mutants, dynK694A and dynR725A, are impaired for assembly into a supramolecular structures in podocytes under normal conditions. […] Loss of FRET measured FLIM correlates with the loss of p40 proteolytic fragment in cultured podocytes. And presence of p40 in cells expressing dynR725A under normal conditions correlates with the lack of dynR725A assembly detected by FLIM. The opposite is true for the dynWT; lack of p40 under control conditions when FLIM is present, and appearance of the p40 upon LPS treatment with no measurable FRET. […] Finally, proteolytic processing of dynamin after LPS treatment is also observed in vivo. […]

T1 sequence (P07711 114-333, species assumed): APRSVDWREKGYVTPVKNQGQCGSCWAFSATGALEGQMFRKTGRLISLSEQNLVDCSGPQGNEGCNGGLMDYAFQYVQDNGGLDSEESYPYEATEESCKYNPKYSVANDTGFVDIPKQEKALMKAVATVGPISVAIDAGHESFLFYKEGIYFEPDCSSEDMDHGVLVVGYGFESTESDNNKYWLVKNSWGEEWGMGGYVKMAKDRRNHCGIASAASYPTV

Q: Which “cleavage of dynamin by cathepsin L, in words” value (from here on “cleavage of dynamin”) (cathepsin L; pH 7.0) does the source give for `Nc1nc2c(ncn2[C@@H]2O[C@H](COP(=O)(O)OP(=O)(O)OP(=O)(O)O)[C@@H](O)[C@H]2O)c(=O)[nH]1` [GTP] here?
A: resulted in significant cleavage of dynamin by cathepsin L; also recorded: resulted in the generation of a prominent proteolytic fragment

Q: Which “cleavage of dynamin” value (cathepsin L; acidic pH (5.0 and 6.0)) does the source give for `Nc1nc2c(ncn2[C@@H]2O[C@H](COP(=O)(O)OP(=O)(O)OP(O)(O)=S)[C@@H](O)[C@H]2O)c(=O)[nH]1` [GTPγS] here?
A: completely inhibited

Q: What about the “cleavage of dynamin” value (cathepsin L; acidic pH (5.0 and 6.0), listed as GTP7S) of the same molecule?
A: completely inhibited

Q: What about the “cleavage of dynamin” value (cathepsin L; acidic pH (5.0 and 6.0), listed as GTPgammaS) of the same molecule?
A: protects from cathepsin L mediated cleavage

Q: And the “cleavage of dynamin” value (cathepsin L; pH 7.0)?
A: abolished dynamin cleavage by cathepsin L; also recorded: did not stimulate cleavage by CatL

Q: What about the “cleavage of dynamin” value (cathepsin L; pH 7.0, listed as GTPgammaS) of the same molecule?
A: inhibited

Q: `CN(C)c1ncnc2c1ncn2[C@@H]1O[C@H](CO)[C@@H](N)[C@H]1O` [PAN, puromycin aminonucleoside] was tested. Which “percentage closure 12 h after post-wound incubation” value (podocytes) did it give?
A: 63%

Q: How did the “lysosomal integrity (Lucifer Yellow), in words” value (lysosomes) turn out when `CCCCCCCCCCCCC/C=C/[C@@H](O)[C@@H](N)CO` [sphingosine] was run?
A: led to the expected lysosomal rupture

B1: dynI690K: dynamin mutant with defective higher order assembly of tetramers (protein)
chain: MGNRGMEDLIPLVNRLQDAFSAIGQNADLDLPQIAVVGGQSAGKSSVLENFVGRDFLPRGSGIVTRRPLVLQLVNATTEYAEFLHCKGKKFTDFEEVRLEIEAETDRVTGTNKGISPVPINLRVYSPHVLNLTLVDLPGMTKVPVGDQPPDIEFQIRDMLMQFVTKENCLILAVSPANSDLANSDALKVAKEVDPQGQRTIGVITKLDLMDEGTDARDVLENKLLPLRRGYIGVVNRSQKDIDGKKDITAALAAERKFFLSHPSYRHLADRMGTPYLQKVLNQQLTNHIRDTLPGLRNKLQSQLLSIEKEVEEYKNFRPDDPARKTKALLQMVQQFAVDFEKRIEGSGDQIDTYELSGGARINRIFHERFPFELVKMEFDEKELRREISYAIKNIHGIRTGLFTPDMAFETIVKKQVKKIREPCLKCVDMVISELISTVRQCTKKLQQYPRLREEMERIVTTHIREREGRTKEQVMLLIDIELAYMNTNHEDFIGFANAQQRSNQMNKKKTSGNQDEILVIRKGWLTINNIGIMKGGSKEYWFVLTAENLSWYKDDEEKEKKYMLSVDNLKLRDVEKGFMSSKHIFALFNTEQRNVYKDYRQLELACETQEEVDSWKASFLRAGVYPERVGDKEKASETEENGSDSFMHSMDPQLERQVETIRNLVDSYMAIVNKTVRDLMPKTIMHLMKNNTKEFIFSELLANLYSCGDQNTLMEESAEQAQRRDEMLRMYHALKEALSIIGDINTTTVSTPMPPPVDDSWLQVQSVPAGRRSPTSSPTPQRRAPAVPPARPGSRGPAPGPPPAGSALGGAPPVPSRPGASPDPFGPPPQVPSRPNRAPPGVPSRSGQASPSRPESPRPPFDL
Q: Which “apparent affinity for self-assembly, fold lower than dynWT” value (dynamin) does the source give for B1 here?
A: unmeasurable

Q: What about the “Mean Lifetime (γ1)” value [1] of the same molecule?
A: 2359 ± 120
